From US20230220480A1, “IRON-SCORE AND IN VITRO METHOD FOR IDENTIFYING HIGH RISK DLBCL SUBJECTS AND THERAPEUTIC USES AND METHODS” (CENTRE NATIONAL DE LA RECHERCHE SCIENTIFIQUE (CNRS), priority 2019, published 2023)
Where two headings read alike, the source gives them in different places.

How the values were obtained:
DB = experiment: Cell viability assay (CellTiter-Glo, ATP quantification); type: cell-based, human; details: cell viability by ATP quantification, read-out: 50% inhibitory concentration (IC50)
Protocol: (§1) FIG. 3: Iron chelators and Ironomycin inhibit DLBCL cell growth DLBCL cells were incubated with different concentrations of iron chelators or vehicle for 96H. Inhibitory concentration 50% (IC50) was calculated with concentration-response curve after treatment with Deferoxamin (A), Deferasirox, (B) and Ironomycin (C). Cell viability was examined using quantification of ATP assay. Data are expressed as mean percentage+/−SEM of at least three independent experiments performed in sixplicate.
(§2) The 16 DLBCL cell lines (U2932, OCI-LY-3, NU-DHL-1, OCI-LY-19, DB, SUDHL4, OCILY1, SUDHL5, DOHH2, SUDHL10, HT, RI-1, SU-DHL-6, NUDUL-1, WSU-DLCL-2 and OCI-LY-7) were purchased from the DSMZ (Leibniz-Institut DSMZ—Deutsche Sammlung von Mikroorganismen und Zellkulturen GmbH, Germany). They were maintained in RPMI-1640 (Gibco, Invitrogen), supplemented with 10% fetal bovine serum (PAA laboratory GmbH) for U2932, SUDHL-4, HT, DOHH2, SUDHL-10, RI-1, WSU-DLCL-2 cell lines, 20% FBS OCI-LY3, DB, SUDHL-5, NUDHL-1, SU-DHL-6, NUDUL-1 cell lines. OCI-LY1 and OCI-LY7 were cultured in IMDM (Gibco, Invitrogen), supplemented with 20% fetal bovine serum and OCI-LY19 was cultured in MEM alpha modified (Gibco, Invitrogen), supplemented with 20% fetal bovine serum. Cultures were maintained at 37° C. in a humidified atmosphere with 5% CO2.
(§3) DLBCL-derived cell lines were cultured for 4 days in 96-well flat-bottom microtiter plates in RPMI 1640 medium, 10% or 20% FCS (control medium) in the presence of various compounds. The number of viable cells in culture was determined using the CellTiter-Glo Luminescent Cell Viability Assay from Promega, Madison, Wis., USA using a Centro LB 960 luminometer (Berthold Technologies, Bad Wildbad, Germany).
(§4) This test is based on quantitation of the intracellular ATP present, which signals the presence of metabolically active cells. Data are expressed as the mean percentage of six replicates, normalized to the untreated control.

OCI-LY3 = experiment: as above; type: cell-based, human; details: cell viability by ATP quantification, read-out: 50% inhibitory concentration (IC50)
Protocol: as §1, §2, §3, §4

SUDHL-5 = experiment: as above; type: cell-based, human; details: SUDHL-5, 96H, cell viability by ATP quantification, read-out: 50% inhibitory concentration (IC50)
Protocol: as §1, §2, §3, §4

U2932 = experiment: as above; type: cell-based, human; details: cell viability by ATP quantification, read-out: 50% inhibitory concentration (IC50)
Protocol: as §1, §2, §3, §4

[1] = test system: OCI-LY3 and DB cell lines
Excerpt: The inventors further investigated the effect of Iron supplementation on the cell death induced by these treatments. Iron chelators concentrations were chosen according the maximal plasmatic concentration achievable in the patient (Nisbet-Brown et al., 2003).
Chaetocin was used as positive control of ROS production inhibited by GSH (Isham et al., 2007).

DLBCL cells = experiment: Ferroptosis, Bodipy-C11 staining and ferrostatin-1 rescue; type: cell-based, human

Structure (SMILES) | IC50 (DB; 96H) [µM] | IC50 (DB; Homo sapiens, 96 h) [µM] | IC50 (OCI-LY3; Homo sapiens, OCI-Ly3, 96 h) [µM] | IC50 (OCI-LY3; OCI-LY3, 96H) [µM] | IC50 (SUDHL-5; Homo sapiens, SU-DHL-5, 96 h) [µM] | IC50 (SUDHL-5) [µM] | IC50 (U2932; Homo sapiens, U2932, 96 h) [µM] | IC50 (U2932; U2932, 96H) [µM] | effect of iron supplementation on drug-induced apoptosis / cytotoxicity [1] | effect on erastin (ferroptosis inductor, positive control) (DLBCL cells) | toxicity in DLBCL cells (DLBCL cells)
CC(=O)N(O)CCCCCNC(=O)CCC(=O)N(O)CCCCCNC(=O)CCC(=O)N(O)CCCCCN [Deferoxamine] | 3.25 | 3.24 | 3.75 | 3.75 | 1.55 | 1.55 | 2.42 | 2.28 | significantly inhibited | – | –
O=C(O)c1ccc(-n2nc(-c3ccccc3O)nc2-c2ccccc2O)cc1 [Deferasirox] | 13.9 | 13.9 | 9.5 | 9.5 | 1.48 | 1.48 | 4.79 | 4.79 | significantly inhibited | – | –
CCOC(=O)c1ccc(NC2CCCCC2)c(N)c1 [Ferrostatin, Ferrostatin-1, reference compound] | – | – | – | – | – | – | – | – | – | abrogated the effects of erastin | did not demonstrated significant toxicity
